From ChEMBL document CHEMBL1135637, “Quantitative structure--activity relations for gammadelta T cell activation by phosphoantigens” (J Med Chem, 2002) come the findings set out here.

The nature of the test: Effective concentration to activate gammadelta T cells. It counts as functional, cell-based. Conditions: t-cell.

What is called EC50 is the concentration at which the effect is half-maximal. A lower EC50 goes with greater potency. The molecule `CC(=O)CCOP(=O)(O)OP(=O)(O)O` showed an EC50 of 40 µM.
Turning to `CCOP(=O)(OCC)OP(=O)(OCC)OCC` [ETHYL PYROPHOSPHATE], the response was half-maximal at 3.16 µM (EC50).
`CC(=O)CCCOP(=O)(O)OP(=O)(O)O` registered an EC50 of 31.6 µM.
`CC(O)(CBr)CCOP(=O)(O)OP(=O)(O)OP(=O)(O)OCC(C)(O)CBr` (stereo not given) had an EC50 of 14.1 µM.
`C=C(C)CCOP(=O)(O)O` [ISOPENTENYL PHOSPHATE] came in with an EC50 of 158 µM.
In turn, `CC(O)(CO)CCOP(=O)(O)OP(=O)(O)O` (stereo not given) showed an EC50 of 3.16 µM.
`CC(C)OP(=O)(O)O` [PHOSPHORYLISOPROPANE] displayed an EC50 of 707 µM.
In the case of `CC(O)(CI)CCOP(=O)(O)OP(=O)(O)O` (stereo not given) [IODOHYDRIN PYROPHOSPHATE], the EC50 came to 0.0012 µM.
`COP(=O)(O)O` [PHOSPHORIC ACID MONOMETHYL ESTER]: the response was half-maximal at 707 µM (EC50).
In turn, `CC(O)(CCl)CCOP(=O)(O)OP(=O)(O)O` (stereo not given) [CHLOROHYDRIN PYROPHOSPHATE] displayed an EC50 of 0.0707 µM.
In turn, `CCCCCN(C)CCC(O)(P(=O)(O)O)P(=O)(O)O` [IBANDRONIC ACID] returned an EC50 of 1 µM.
For the molecule `O=P(O)(O)OCC(O)CO` (stereo not given), a half-maximal effect (EC50) was put at 1580 µM.
`NCCCC(O)(P(=O)(O)O)P(=O)(O)O` [ALENDRONIC ACID] showed an EC50 of 0.9 µM.
Regarding `CC(=O)C(C)COP(=O)(O)OP(=O)(O)O` (stereo not given), the response was half-maximal at 31.6 µM (EC50).
`CCC(=O)CCOP(=O)(O)OP(=O)(O)O` had an EC50 of 31.6 µM.
On to `NCCC(O)(P(=O)(O)O)P(=O)(O)O` [PAMIDRONIC ACID], for which the EC50 is 5.66 µM.
For `O=C(O)C(COP(=O)(O)O)OP(=O)(O)O` (stereo not given) the value was 1580 µM.
As to `C/C=C\COP(=O)(O)OP(=O)(O)O` [CROTYL PYROPHOSPHATE], it took 3.16 µM to reach a half-maximal effect (EC50).
`C/C=C\COP(=O)(O)O` showed an EC50 of 158 µM.
For the molecule `CC(C)=CCOP(=O)(O)O`, a half-maximal response (EC50) required 158 µM.
For `CCC(C)OP(=O)(O)O` (stereo not given) the value was 2240 µM; for `CCCOP(=O)(O)O` [PROPYL PHOSPHATE], 707 µM.
`O=P(O)(O)O[C@@H]1OC[C@@H](O)[C@H](O)[C@H]1O` yielded an EC50 of 1580 µM.
Consider `CC(O)(CBr)CCOP(=O)(O)OP(=O)(O)O` (stereo not given) [BROMOHYDRIN PYROPHOSPHATE], for which the EC50 amounted to 0.01 µM.
As for `CC(COP(=O)(O)OP(=O)(O)O)C(C)(O)CI` (stereo not given), the EC50 is 7.07 µM.
Regarding `C=CCOP(=O)(O)O`, the midpoint of the response, the EC50, lay at 158 µM.
The molecule `C=CCOP(=O)(O)OP(=O)(O)O` [ALLYL PYROPHOSPHATE] returned an EC50 of 3.16 µM.
Regarding `O=P(O)(O)OCCO`, the EC50 came out at 224 µM.
For `CCC(=O)COP(=O)(O)OP(=O)(O)O` the value was 44.7 µM.
`CC(O)(CBr)CCOP(=O)(O)OP(=O)(O)OP(=O)(O)O` (stereo not given) [BROMOHYDRIN TRIPHOSPHATE] showed an EC50 of 0.346 µM.
Consider `CC(O)(CI)CCOP(=O)(O)OP(=O)(O)OP(=O)(O)OCCC(C)(O)CI` (stereo not given), for which the EC50 was found to be 8.66 µM.
`CC(O)(CI)CCOP(=O)(O)OP(=O)(O)OP(=O)(O)O` (stereo not given) [IODOHYDRIN TRIPHOSPHATE] gave an EC50 of 0.224 µM.
As to `CC(OP(=O)(O)O)C(=O)O` (stereo not given), the midpoint of the response, the EC50, lay at 1580 µM.
For the molecule `O=C(O)COP(=O)(O)O` [PHOSPHOGLYCOLIC ACID], a half-maximal response (EC50) required 707 µM.
For `C[C@@]1(CCOP(=O)(O)OP(=O)(O)O)CO1` the value was 0.4 µM.
